The text below walks through data of patent US9695128B2, “Ethynyl derivatives” (Hoffmann-La Roche Inc., priority 2014, dated 2017).

The target in assay [1] is recombinant human mGlu4 expressed in HEK293 cells (Homo sapiens (Human), UniProt Q14833). The experiment in a line: Ca2+ mobilization in vitro assay, mGlu4 PAM (with EC20 of L-AP4). Type of assay: cell-based. To be noted: for Emax: HEK293, maximal response in % of the maximal stimulatory effect obtained with saturating concentrations of L-AP4, read-out: Eff. (%); for EC50: human mGlu4 in HEK293 cells, Ca2+ mobilization, L-AP4 at EC20, read-out: EC50 (nM) mGlu4PAM. The method, then: Determination of EC50 Values Using a Ca2+ Mobilization in vitro Assay on Recombinant Human mGlu4 Expressed in HEK293 Cells:
A monoclonal HEK-293 cell line stably transfected with a cDNA encoding for the human mGlu4 receptor was generated; for the work with mGlu4 Positive Allosteric Modulators (PAMs), a cell line with low receptor expression levels and low constitutive receptor activity was selected to allow the differentiation of agonistic versus PAM activity. Cells were cultured according to standard protocols (Freshney, 2000) in Dulbecco's Modified Eagle Medium with high glucose supplemented with 1 mM glutamine, 10% (vol/vol) heat-inactivated bovine calf serum, Penicillin/Streptomycin, 50 μg/ml hygromycin and 15 μg/ml blasticidin (all cell culture reagents and antibiotics from Invitrogen, Basel, Switzerland). • About 24 hrs before an experiment, 5×10^4 cells/well were seeded in poly-D-lysine coated, black/clear-bottomed 96-well plates. The cells were loaded with 2.5 μM Fluo-4AM in loading buffer (1×HBSS, 20 mM HEPES) for 1 hr at 37° C. and washed five times with loading buffer. The cells were transferred into a Functional Drug Screening System 7000 (Hamamatsu, Paris, France), and 11 half logarithmic serial dilutions of test compound at 37° C. were added and the cells were incubated for 10-30 min. with on-line recording of fluorescence. Following this pre-incubation step, the agonist (2S)-2-amino-4-phosphonobutanoic acid (L-AP4) was added to the cells at a concentration corresponding to EC20 with on-line recording of fluorescence; in order to account for day-to-day variations in the responsiveness of cells, the EC20 of L-AP4 was determined immediately ahead of each experiment by recording of a full dose-response curve of L-AP4.
Responses were measured as peak increase in fluorescence minus basal (i.e. fluorescence without addition of L-AP4), normalized to the maximal stimulatory effect obtained with saturating concentrations of L-AP4. Graphs were plotted with the % maximal stimulatory using XLfit, a curve fitting program that iteratively plots the data using Levenburg Marquardt algorithm. The single site competition analysis equation used was y=A+((B−A)/(1+((x/C)D))), where y is the % maximal stimulatory effect, A is the minimum y, B is the maximum y, C is the EC50, x is the log 10 of the concentration of the competing compound and D is the slope of the curve (the Hill Coefficient). From these curves the EC50 (drug concentration at which 50% of the maximal receptor activation was achieved), the Hill coefficient as well as the maximal response in % of the maximal stimulatory effect obtained with saturating concentrations of L-AP4 were calculated (see FIG. 1).
A depression of the signal observed after addition of the EC20 concentration of L-AP4 was indicative of an inhibitory activity of the test compound.

Assay [2] concerns mice treated with MPTP. To be noted: cited from earlier work.
Assay [3] deals with marble burying test in mice. To be noted: reported by Addex 2010; cited from earlier work.
Assay [4] concerns EPM in mice. To be noted: reported by Addex 2010; cited from earlier work.
Assay [5] has as its system EPM in rats. To be noted: cited from earlier work.
Assay [6] concerns 6-OHDA rodent model of PD. Conditions: cited from earlier work.

Chain of recombinant human mGlu4 expressed in HEK293 cells (Q14833 33-912): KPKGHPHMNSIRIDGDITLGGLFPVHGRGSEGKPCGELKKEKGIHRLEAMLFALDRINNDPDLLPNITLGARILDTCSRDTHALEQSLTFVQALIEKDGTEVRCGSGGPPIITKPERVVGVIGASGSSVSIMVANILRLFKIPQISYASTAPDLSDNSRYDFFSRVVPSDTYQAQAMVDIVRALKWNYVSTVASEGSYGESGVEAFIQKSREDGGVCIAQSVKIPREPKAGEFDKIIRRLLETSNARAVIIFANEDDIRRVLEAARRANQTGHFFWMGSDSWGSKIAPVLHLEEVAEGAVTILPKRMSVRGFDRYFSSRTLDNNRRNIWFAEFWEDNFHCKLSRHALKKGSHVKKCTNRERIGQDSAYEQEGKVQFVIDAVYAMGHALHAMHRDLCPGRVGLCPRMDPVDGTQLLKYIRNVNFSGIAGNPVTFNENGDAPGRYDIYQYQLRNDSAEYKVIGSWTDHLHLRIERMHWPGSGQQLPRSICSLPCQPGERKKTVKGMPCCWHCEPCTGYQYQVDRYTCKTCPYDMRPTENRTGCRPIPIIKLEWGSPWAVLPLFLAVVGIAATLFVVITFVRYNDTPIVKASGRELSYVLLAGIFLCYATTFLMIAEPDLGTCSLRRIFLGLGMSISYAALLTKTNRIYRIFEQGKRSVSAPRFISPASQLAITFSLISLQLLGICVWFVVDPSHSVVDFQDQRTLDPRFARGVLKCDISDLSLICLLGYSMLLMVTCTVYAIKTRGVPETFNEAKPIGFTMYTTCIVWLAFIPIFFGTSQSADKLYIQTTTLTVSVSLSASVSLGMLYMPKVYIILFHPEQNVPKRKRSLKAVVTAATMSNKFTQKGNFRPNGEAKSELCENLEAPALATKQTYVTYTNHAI

In the case of `CC(C)N1C(=O)N(c2c(F)cc(C#Cc3ccccc3)cc2F)C(=O)C1C` (racemic) [Example 2, (5RS)-3-[2,6-Difluoro-4-(2-phenylethynyl)phenyl]-1-isopropyl-5-methyl-imidazolidine-2,4-dione], in assay [1], the Emax was found to be 107% and the EC50 was 104 nM.

Regarding `CC1COCC2C(=O)N(c3c(F)cc(C#Cc4ccccc4)cc3F)C(=O)N12` (racemic) [Example 4, (5RS,8aRS)-2-[2,6-Difluoro-4-(2-phenylethynyl)phenyl]-5-methyl-5,6,8,8a-tetrahydroimidazo[5,1-c][1,4]oxazine-1,3-dione], in assay [1], the Emax turned out to be 188% and the 50% effective concentration (EC50) stood at 204 nM.

In the case of `O=C1C2Cc3ccccc3N2C(=O)N1c1c(F)cc(C#Cc2ccccc2)cc1F` (racemic) [Example 5, (3aRS)-2-[2,6-Difluoro-4-(2-phenylethynyl)phenyl]-3a,4-dihydroimidazo[1,5-a]indole-1,3-dione], in assay [1], the Emax came to 103% and the EC50 was determined as 188 nM.

For the compound `O=C1C2CCc3ccccc3N2C(=O)N1c1c(F)cc(C#Cc2ccccc2)cc1F` (racemic) [Example 6, (3aRS)-2-[2,6-Difluoro-4-(2-phenylethynyl)phenyl]-4,5-dihydro-3aH-imidazo[1,5-a]quinoline-1,3-dione], in assay [1], the Emax turned out to be 110% and the EC50 came to 74 nM.

For `O=C1C2Cc3ccccc3CN2C(=O)N1c1c(F)cc(C#Cc2ccccc2)cc1F` (racemic) [Example 9, (10aRS)-2-[2,6-Difluoro-4-(2-phenylethynyl)phenyl]-10,10a-dihydro-5H-imidazo[1,5-b]isoquinoline-1,3-dione], in assay [1], the Emax was 99% and the half-maximal effective concentration (EC50) was 56 nM.

Consider `CC1CCCC2C(=O)N(c3ccc(C#Cc4ccccc4)cc3Cl)C(=O)N12` (racemic) [Example 10, (5RS,8aRS)-2-[2-Chloro-4-(2-phenylethynyl)phenyl]-5-methyl-6,7,8,8a-tetrahydro-5H-imidazo[1,5-a]pyridine-1,3-dione], for which, in assay [1], the Emax was determined as 232% and the concentration giving a half-maximal response (EC50) came to 256 nM.

`CC1CCCC2C(=O)N(c3c(F)cc(C#Cc4cccnc4)cc3Cl)C(=O)N12` (racemic) [Example 11, (5RS,8aRS)-2-[2-Chloro-6-fluoro-4-[2-(3-pyridyl)ethynyl]phenyl]-5-methyl-6,7,8,8a-tetrahydro-5H-imidazo[1,5-a]pyridine-1,3-dione]: in assay [1], the Emax was 140% and the concentration for a half-maximal effect (EC50) is 180 nM.

Regarding `O=C(Nc1ccccc1)C12CC1/C(=N\O)c1ccccc1O2` (single isomer, unassigned; (-)) [(−)-PHCCC], the nigrostriatal degeneration entry in assay [2] is listed as “reduced nigrostriatal degeneration”.

In the case of `Cc1ccnc(Nc2nc(-c3cn[nH]c3)c(C)s2)n1` [ADX88178], the “activity in marble burying test” value in assay [3] is recorded as “active”. The “activity in EPM” value is recorded as “active” in assay [4] and “active” in assay [5] (rats, reported by Addex 2010). The “profile in rat EPM test” value in assay [5] (rat, after oral dosing) is reported as “anxiolytic-like profile”.

Regarding `CC(C)N1CC(=O)N(c2c(F)cc(C#Cc3ccccc3)cc2F)C1=O` [Example 1, 3-[2,6-Difluoro-4-(2-phenylethynyl)phenyl]-1-isopropyl-imidazolidine-2,4-dione], in assay [1], the Emax amounted to 154% and the EC50 was determined as 441 nM.

As to `CC(C)N1C(=O)N(c2c(F)cc(C#Cc3ccccc3)cc2F)C(=O)C1(C)C` [Example 3, 3-[2,6-Difluoro-4-(2-phenylethynyl)phenyl]-1-isopropyl-5,5-dimethyl-imidazolidine-2,4-dione], in assay [1], the Emax is 98% and the concentration giving a half-maximal response (EC50) was 286 nM.

For `CC1(C)C(=O)N(c2c(F)cc(C#Cc3ccccc3)cc2F)C(=O)N1c1ccccc1` [Example 7, 3-[2,6-Difluoro-4-(2-phenylethynyl)phenyl]-5,5-dimethyl-1-phenyl-imidazolidine-2,4-dione], in assay [1], the Emax was determined as 222% and the concentration for a half-maximal effect (EC50) is 242 nM.

With `CC(C)(C)N1CC(=O)N(c2c(F)cc(C#Cc3ccccc3)cc2F)C1=O` [Example 8, 1-tert-Butyl-3-[2,6-difluoro-4-(2-phenylethynyl)phenyl]imidazolidine-2,4-dione], in assay [1], the Emax was 143% and the EC50 worked out at 222 nM.

In the case of `O=C1CN(C2CC2)C(=O)N1c1c(F)cc(C#Cc2ccccc2)cc1F` [Example 12, 1-Cyclopropyl-3-[2,6-difluoro-4-(2-phenylethynyl)phenyl]imidazolidine-2,4-dione], in assay [1], the Emax is 113% and the EC50 turned out to be 370 nM.

As to `CC(C)N1C(=O)N(c2c(F)cc(C#Cc3ccccc3)cc2F)C(=O)C12COC2` [Example 13, 7-[2,6-Difluoro-4-(2-phenylethynyl)phenyl]-5-isopropyl-2-oxa-5,7-diazaspiro[3.4]octane-6,8-dione], in assay [1], the Emax turned out to be 100% and the concentration for a half-maximal effect (EC50) was determined as 230 nM.

For `N[C@@H](CCP(=O)(O)O)C(=O)O` [L-AP4, (2S)-2-amino-4-phosphonobutanoic acid], the neuroprotective effects result in assay [6] was “demonstrated neuroprotective effects”.
